In ChEMBL document CHEMBL1129016, “Synthesis and in vitro evaluation of 3-substituted-1-azaanthraquinones” (Bioorg Med Chem Lett, 1996):
In brackets after ≈: the same amount, converted by molar mass.

Key:
SNU1 = test: In vitro cytotoxic activity against SNU-1(stomach cancer cell) by using SRB assay after 72 hr of drug exposure; assay type: functional, cell-based; conditions: Homo sapiens, SNU1, 72 h
MCF7 [1] = test: In vitro cytotoxic activity against subline resistant to doxorubicin (MCF-7/R) by using SRB assay after 72 hr of drug exposure; assay type: functional, cell-based; conditions: Homo sapiens, MCF7, 72 h
MCF7 [2] = test: In vitro cytotoxic activity against human breast cancer cells (MCF-7) by using SRB assay after 72 hr of drug exposure; assay type: functional, cell-based; conditions: MCF7, 72 h
SNU-354 = test: In vitro cytotoxic activity against SNU-354(liver cancer cell) by using SRB assay after 72 hr of drug exposure; assay type: functional, cell-based; conditions: Homo sapiens, SNU-354, 72 h
[3] = Resistance index expressed as the ratio of IC50 of resistant cell line (MCF-7/R) to IC50 of sensitive cell line (MCF-7); assay type: functional

SMILES | IC50 (SNU1) | IC50 (MCF7 [1]) | IC50 (MCF7 [2]) | IC50 (SNU-354) | Resistance index [3]
CC(C)NC(=O)OCc1cnc2c(c1)C(=O)c1ccccc1C2=O | > 20 µg/mL | > 100 µg/mL | > 100 µg/mL | > 20 µg/mL | –
COc1cccc2c1C(=O)c1c(O)c3c(c(O)c1C2=O)C[C@@](O)(C(=O)CO)C[C@@H]3O[C@H]1C[C@H](N)[C@H](O)[C@H](C)O1 [DOXORUBICIN] | 0.27 µg/mL (≈ 0.497 µM) | – | – | 0.54 µg/mL (≈ 0.994 µM) | –
O=C(Nc1ccccc1)OCc1cnc2c(c1)C(=O)c1ccccc1C2=O | 14.9 µg/mL (≈ 41.6 µM) | 57.3 µg/mL (≈ 160 µM) | 4.58 µg/mL (≈ 12.8 µM) | 15.2 µg/mL (≈ 42.4 µM) | 12.5
Cc1cnc2c(c1)C(=O)c1ccccc1C2=O | 13.9 µg/mL (≈ 62.3 µM) | 69.1 µg/mL (≈ 309 µM) | 18.3 µg/mL (≈ 82.1 µM) | > 20 µg/mL | 3.8
O=C1c2ccccc2C(=O)c2ncc(CO)cc21 | 8.1 µg/mL (≈ 33.9 µM) | 17.7 µg/mL (≈ 74.1 µM) | 6.66 µg/mL (≈ 27.8 µM) | 4.5 µg/mL (≈ 18.8 µM) | 2.7
O=C1c2ccccc2C(=O)c2ncc(CBr)cc21 | 0.56 µg/mL (≈ 1.85 µM) | 3.08 µg/mL (≈ 10.2 µM) | 2.49 µg/mL (≈ 8.24 µM) | 0.89 µg/mL (≈ 2.95 µM) | 1.2
CC(=O)OCc1cnc2c(c1)C(=O)c1ccccc1C2=O | 8.4 µg/mL (≈ 29.9 µM) | 49.9 µg/mL (≈ 177 µM) | 6.7 µg/mL (≈ 23.8 µM) | 11.8 µg/mL (≈ 42 µM) | 7.4
